The text below walks through data of ChEMBL document CHEMBL4321858 (J Med Chem, 2019).

In brackets after ≈: the same amount, converted by molar mass.

The nature of data set [1]: Lipophilicity, logD of compound at pH 7.5 by RP-HPLC analysis. The format is physicochemical. As to conditions: buffer.
The nature of data set [2]: Apparent permeability across apical to basolateral side in human Caco2 cells at 2 uM after 2 hrs by LC/MS-MS analysis. It is filed as ADME, cell-based. As to conditions: Caco-2. A general note: Caco-2 monolayers are a common model of the intestinal barrier.
Data set [3] in a line: Thermodynamic solubility of compound at pH 6.5. It is filed as physicochemical. As to conditions: buffer; for solubility thermodynamic: read-out: Therm_solubility.
A short description of data set [4]: Volume of distribution at steady state in Wistar rat at 0.5 mg/kg, iv. It is filed as ADME, organism-based. As to conditions: in vivo, read-out: Vdss.
The nature of data set [5]: Oral bioavailability in Wistar rat at 2 mg/kg. The format is ADME, organism-based. As to conditions: in vivo.
Data set [6] can be described thus: AUC in Wistar rat at 0.5 mg/kg, iv. As to conditions: in vivo. The format is ADME, organism-based.
Data set [7] is described as follows: Unbound drug level in plasma of CFA induced C57BL/6N mouse at 50 mg/kg, po after 1 hr. It is filed as ADME, organism-based. As to conditions: in vivo.
The nature of data set [8]: Unbound drug level in plasma of CFA induced C57BL/6N mouse at 50 mg/kg, po after 80 mins. It is filed as ADME, organism-based. As to conditions: in vivo.
The nature of data set [9]: Volume of distribution at steady state in Wistar rat at 1 mg/kg, iv. As to conditions: in vivo, read-out: Vdss. The format is ADME, organism-based.
Data set [10] can be described thus: Unbound drug level in plasma of CFA induced C57BL/6N mouse at […], po after 1 hr. It is filed as ADME, organism-based. As to conditions: in vivo.
Data set [11] can be described thus: Unbound drug level in plasma of CFA induced C57BL/6N mouse at 25 mg/kg, po after 1 hr. It is filed as ADME, organism-based. As to conditions: in vivo.
The nature of data set [12]: AUC in Wistar rat at 1 mg/kg, iv. It is filed as ADME, organism-based. As to conditions: in vivo.

Usually logD stands for the decadic logarithm of the distribution of all forms, ionised or not, between an organic phase and buffer at a given pH. A higher logD goes with a more lipophilic compound. A word on the Papp A→B: it is how fast a substance crosses the layer from the apical side. One may read the bioavailability as dose-corrected exposure relative to a reference, in per cent. Low readings indicate poor availability, high ones good availability.

Regarding `NS(=O)(=O)c1cc(NC(=O)Cc2cc(F)ccc2Cl)ccc1OCC1CCOCC1`, the log distribution coefficient (logD) in [1] is 2.2. For the same molecule, in data set [2], the Papp A→B at 2 h, 2 µM turned out to be 4.3 ×10⁻⁶ cm/s. For the same molecule, the solubility thermodynamic in [3] is 24 µg/mL (≈ 52.5 µM). Besides, the Vd in data set [4] worked out at 0.82 L/kg. For the same molecule, the bioavailability in data set [5] is 44%. The molecule further showed an AUC in data set [6] of 1.11 kg·h/L.
Molecule `NS(=O)(=O)c1cc(NC(=O)Cc2ccccc2Cl)ccc1Oc1cccc(Cl)c1` gave a logD in data set [1] of 3. In addition, the solubility thermodynamic in [3] worked out at 7 µg/mL (≈ 15.5 µM).
Take `NS(=O)(=O)c1cc(NC(=O)Cc2ccccc2)ccc1Oc1cccc(Cl)c1` [BAY-1797]: the “Cp(f)” value in [7] is 672 nM; in [8] it was 548 nM; in data set [10] it was 186 nM; in data set [11], 374 nM. In data set [1], this molecule gave a logD of 2.8. Besides, the apparent permeability from apical to basolateral (Papp A→B) at 2 h, 2 µM in data set [2] came to 13.2 ×10⁻⁶ cm/s. In addition, in [9], the Vd worked out at 2.77 L/kg. The solubility thermodynamic in data set [3] stood at 16 µg/mL (≈ 38.4 µM). In addition, the bioavailability in data set [5] came out at 43%. Further, in [12], the AUC amounted to 1.06 kg·h/L.
As to `NS(=O)(=O)c1cc(NC(=O)Cc2c(F)cccc2Cl)ccc1Oc1cccc(Cl)c1`, in [3], the solubility thermodynamic is 0.7 µg/mL (≈ 1.49 µM).
Regarding `NS(=O)(=O)c1cc(NC(=O)Cc2ccccc2C(F)(F)F)ccc1Oc1cccc(Cl)c1`, in [1], the log distribution coefficient (logD) came out at 3.3.
`NS(=O)(=O)c1cc(NC(=O)Cc2ccccc2Cl)ccc1Oc1ccc(-c2nccs2)cc1`: the solubility thermodynamic in [3] came to 1 µg/mL (≈ 2 µM).
In [1], `NS(=O)(=O)c1cc(NC(=O)Cc2ccccc2Cl)ccc1OCC1CCOCC1` came in with a logD of 2.2. The Papp A→B at 2 h, 2 µM in [2] was 5.3 ×10⁻⁶ cm/s. Further, the solubility thermodynamic in [3] is 21 µg/mL (≈ 47.8 µM). Besides, the Vd in [4] was determined as 1.23 L/kg. Further, in [5], the bioavailability amounted to 21%. For the same molecule, the AUC in data set [6] was determined as 0.37 kg·h/L.
Take `NS(=O)(=O)c1cc(NC(=O)Cc2ccccc2Cl)ccc1OCc1ccccc1`: the Therm_solubility result in data set [3] is on record as “Insoluble”.
